This is an account of results in patent publication US4426389A, “Derivatives of clavulanic acid, a process for their preparation and their use” (Beecham Group Limited, priority 1979, dated 1984).

Common to all, as to format: cell-based
Experiment [1] deals with Staph. aureus Russell. Kind of experiment: MIC by standard microtitre technique (dilution in tryptone soy broth), Staph. aureus Russell. To be noted: Staphylococcus aureus, alone. As to the method:
(§1) By a standard microtitre technique the MIC values for ampicillin alone, ampicillin and 9-N-(2'-cyanoethyl)aminodeoxyclavulanic acid and 9-N-(2'-cyanoethyl)aminodeoxyclavulanic acid alone were determined.
(§2) MIC μg/ml (dilution in tryptone soy broth)

A further experiment concerns Kleb. aerogenes E70. Kind of experiment: MIC by standard microtitre technique (dilution in tryptone soy broth), Kleb. aerogenes E70. To be noted: Klebsiella aerogenes, alone.
A further experiment concerns E. coli JT39. The experiment can be described thus: MIC by standard microtitre technique (dilution in tryptone soy broth), E. coli JT39. To be noted: Escherichia coli, alone. The procedure: as §1, §2
The subject of the next experiment is Staph. aureus Oxford. Kind of experiment: Antibacterial activity, MIC, Staph. aureus Oxford. To be noted: Staphylococcus aureus. An excerpt: (§3) Antibacterial activity of 9-N-(2'-cyanoethyl)aminodeoxyclavulanic acid, MIC μg/ml.
The subject of experiment [2] is Staph. aureus Russell. Kind of experiment: Antibacterial activity, MIC, Staph. aureus Russell. To be noted: Staphylococcus aureus.
Source text: as §3

A further experiment has as its system Strep. Pyogenes. Kind of experiment: Antibacterial activity, MIC, Strep. Pyogenes. To be noted: Streptococcus pyogenes.
Source text: as §3

In a further experiment the test system is Strep. Pneumoniae. The experiment can be described thus: Antibacterial activity, MIC, Strep. Pneumoniae. To be noted: Streptococcus pneumoniae.
Source text: as §3

As usually defined, the MIC is the lowest concentration found to suppress growth. A lower MIC goes with inhibition by little substance.

The structures appear in SMILES notation. ≈ marks a conversion by molar mass, not a printed value.

`N#CCCNC/C=C1\O[C@@H]2CC(=O)N2[C@H]1C(=O)O` [9-N-(2'-Cyanoethyl)aminodeoxyclavulanic acid]: the MIC against Staph. aureus Russell [1] is 16 µg/mL (≈ 63.7 µM); against Kleb. aerogenes E70, 250 µg/mL (≈ 995 µM); against E. coli JT39 it was 31 µg/mL (≈ 123 µM); against Staph. aureus Oxford, 10 to 20 µg/mL (≈ 39.8 to 79.6 µM); against Staph. aureus Russell [2] it was 10 to 20 µg/mL (≈ 39.8 to 79.6 µM); in the experiment on Strep. Pyogenes, 10 µg/mL (≈ 39.8 µM). The compound further had an MIC in the experiment with Strep. Pneumoniae of 5 µg/mL (≈ 19.9 µM).
Regarding `CC1(C)S[C@@H]2[C@H](NC(=O)[C@H](N)c3ccccc3)C(=O)N2[C@H]1C(=O)O` [Ampicillin, ampicillin, reference compound], the MIC in the experiment with Staph. aureus Russell [1] and against Kleb. aerogenes E70 was 500 to 1000 µg/mL (≈ 1430 to 2860 µM) each time.
